According to US12584098B2, “In-vitro model of the human gut microbiome and uses thereof in the analysis of the impact of xenobiotics” (EUROPEAN MOLECULAR BIOLOGY LABORATORY, priority 2018, dated 2026):
Where two headings read alike, the source gives them in different places. One block for each compound: values may come before it.

Columns and labels:
gut bacterial strains = experiment: Testing for anticommensal activity at higher concentrations (validation of side effect-based predictions); type: cell-based
25 gut bacterial strains [1] = experiment: Bacteria-drug interaction screen: drug depletion from supernatant (UV-UPLC); conditions: 50 μM drug, 48 h anaerobic growth
Description: (§1) All liquid chromatography methods are run on a Waters Acquity UPLC H-Class instrument with a PDA detector and a quaternary solvent system. All established methods are 5 minutes long, have a flow rate of 0.5 ml/min and run on a CSH C18 column (Waters, Part number 186005297) in reverse mode. The column is heated to 40° C. and samples are kept at 6° C. All methods use 50% acetonitrile (Biosolve, ULC grade) for washing buffer, and 50% methanol (Biosolve, ULC grade) for purging buffer. As organic mobile phase acetonitrile was used. The assay was optimized using only two buffers besides water as hydrophilic mobile phase: 5 mM formic acid (Biosolve, ULC grade) of pH 3.2 and 5 mM ammonium formate (Ammonium hydroxide, ACS grade, Sigma) with pH adjusted to 8.3 using the formic acid buffer.
For all drugs, a fixed concentration of 50 µM was used, which in most cases approximates the concentration of one pill (0.02-3 mmol) diluted in the volume of the gut (approx. 2.5 L). One bacteria-free control per plate and drug, but triplicates for each bacteria-drug interaction was screened. […] Growth was monitored with measurements of the optical density at 578 nm using an Eon Microplate Spectrophotometer (BIOTEK) approximately every 2 h for the first 10 h, then approximately every 6 h. […]

[2] = system: gut bacterial strains (hits of the interaction screen); experiment: Depletion-mode assay: supernatant vs total extraction; conditions: 50 μM drug, 48 h, GMM
Description: If the drug is only depleted in the supernatant, the drug is likely a bioaccumulated, whereas if the drug is also depleted in the extraction of the total fraction a biodegradation is likely.
as §1
Bacteria from second passage culture are inoculated with an OD578 of 0.01 in 1 mL GMM containing 50 μM drug of interest in 2 mL eppendorf tubes and incubated for 48 h while shaking. After finishing growth, the cultures were removed from the anaerobic chamber. […]

[3] = cited from earlier work
25 gut bacterial strains [4] = experiment: Growth effect (OD578) in the bacteria-drug interaction screen; type: cell-based, human gut bacteria; conditions: 50 μM drug, 25 strains
E. coli IAI1 = conditions: 50 μM drug
C. saccharolyticum = conditions: 50 μM drug

Structure (SMILES): CN(C)C(=N)N=C(N)N [Metformin]
- anticommensal activity at concentrations higher than the 20 μM of the screen (gut bacterial strains): verified

Structure (SMILES): O=C1[C@H](CC[C@H](O)c2ccc(F)cc2)[C@@H](c2ccc(O)cc2)N1c1ccc(F)cc1 [ezetimibe]
- depletion of drug from the medium by bacterial strains (in words) (25 gut bacterial strains [1]): interacting only with a few bacterial strains

- predominant mode of depletion [2]: bioaccumulation
Structure (SMILES): CC(C)(O)c1ccccc1CC[C@@H](SCC1(CC(=O)O)CC1)c1cccc(/C=C/c2ccc3ccc(Cl)cc3n2)c1 [montelukast]
- depletion mode: bioaccumulation or biodegradation (in words) ([2]; supernatant vs total extraction): bioaccumulated and then partially degraded by several bacterial strains

Structure (SMILES): CC[C@@H]([C@H](C)O)n1ncn(-c2ccc(N3CCN(c4ccc(OC[C@@H]5CO[C@@](Cn6cncn6)(c6ccc(F)cc6F)C5)cc4)CC3)cc2)c1=O [posaconazole]
- maximum concentration in the duodenum ([3]; 40 mg (57 μmol) delivered to the stomach in acidic solution): 26.3 ± 10.3 µM
- maximum concentration in the duodenum ([3]; 40 mg (57 μmol) delivered to the stomach in neutral solution): 13.6 ± 5.8 µM

Structure (SMILES): C[C@H](Cn1cnc2c(N)ncnc21)OCP(=O)(O)O [tenofovir]
- effect on bacterial growth in the screen (25 gut bacterial strains [4]): nor affecting bacterial growth
- depletion of drug from the medium by bacterial strains (in words) (25 gut bacterial strains [1]): neither being depleted

Structure (SMILES): CNCC[C@H](Oc1cccc2ccccc12)c1cccs1 [duloxetine]
- effect on growth of E. coli IAI1 (E. coli IAI1): inhibiting growth
- effect on growth of C. saccharolyticum (C. saccharolyticum): inhibiting growth
